Results: patent US20260315434A1, “USE OF GUAIACOL SESQUITERPENE LACTONE DERIVATIVES” (NANJING UNIVERSITY OF CHINESE MEDICINE, priority 2023, published 2026)

Tests used:
[1] = tested on: T cells / MDSCs; assay: Promotion of T cell proliferation in a co-culture model of MDSCs and T cells; format: cell-based, mouse; details: for activation at 1 µM: Mus musculus, T-cell, 12 h, read-out: T-cell proliferation rate (%), 1 μM, MDSCs treated 12 hours, co-culture of MDSCs and T cells, compared to the control group
Procedure: Under sterile conditions, the tibia was removed, both ends of the bone were cut, and bone marrow was repeatedly flushed into a 15 mL centrifuge tube using a 1 mL syringe filled with culture medium. Centrifuge at 1600 rpm for 5 min to collect bone marrow cells. […] The spleen cell suspension was then transferred into a 15 mL centrifuge tube. Centrifuge at 1600 rpm for 5 min to collect T cells. Wash twice with 1×PBS. Resuspend the centrifuged T cells in 1 mL PBS and add 1 mL of 10 μM CFDA-SE solution. Incubate at room temperature for 8 min. […] After drug administration, collect MDSC cells into centrifuge tubes. Centrifuge at 1600 rpm for 5 min, remove supernatant, resuspend in 1 mL fresh medium, and plate. Add 1 mL stimulated activated T cells (1:1 ratio) for 48 h co-culture. After incubation, collect cells into centrifuge tubes, wash twice with PBS, and incubate with Fc antibody at room temperature in the dark for 10 min. Add CD3-labeled flow cytometry antibody and incubate at 4° C. in the dark for 30 min. After incubation, wash cells with PBS, resuspend in 300 μL PBS, and analyze by flow cytometry.

[2] = Conversion (release) of prodrug salts to parent compound in HEPES buffer pH 7.4; format: in vitro ADME; details: for degraded at 1 h / degraded at 2 h / degraded at 4 h / degraded at 8 h / degraded at 12 h: hepes buffer, pH 7.4, HEPES pH 7.4, 37 °C, read-out: Release rate (conversion to Compound 1); for Release rate (conversion to Compound 1): HEPES pH 7.4, 37 °C
Procedure: (§1) Pharmaceutically acceptable salts of guaiane-type sesquiterpene lactone derivatives were selected and evaluated for their conversion rates to Compound 1 and Compound 83 in plasma and HEPES buffer, with results shown in Tables 2-1, 2-2, 3-1, and 3-2.
Experimental Method: Preparation of HEPES 7.4 Solution: Dissolve 1.6 g NaCl, 0.074 g KCl, 0.027 g Na2HPO4, 0.2 g glucose, and 1 g 4-(2-Hydroxyethyl)piperazine-1-ethanesulfonic acid (HEPES) solution in 90 mL distilled water. Adjust the pH to 7.4 using 0.5 M NaOH, then dilute to a final volume 100 mL with distilled water.
(§2) Sample Analysis: Dissolve 0.6 mg of the compound in 250 μL of deionized water separately. Add 250 μL of mouse serum or HEPES 7.4 solution to the sample, incubate at a constant temperature of 37° C., and collect samples at different time points. Pipette 20 μL of the sample to an EP tube, add 60 μL of methanol, vortex to mix thoroughly, and centrifuge at 12,000 rpm at 4° C. for 10 min. At 1 h, 2 h, 4 h, 8 h, and 12 h respectively, collect the supernatant for HPLC analysis. Inject 10 μL of sample and record the corresponding peak areas. Chromatographic conditions: Hanbang C18 column (4.6×250 mm, 5 μm); mobile phase: acetonitrile: […] ammonium formate solution=60:40; flow rate 1.0 mL/min; detection wavelength 210 nm; column temperature 30° C.

[3] = Conversion (release) of prodrug salts to parent compound in mouse plasma; format: in vitro ADME; details: 37 °C; for metabolised at 1 h / metabolised at 2 h / metabolised at 4 h / metabolised at 8 h / metabolised at 12 h: mouse, plasma, read-out: Release rate (conversion to Compound 1)
Procedure: as §1
Plasma Preparation: Collect mouse plasma into an EP tube pre-loaded with sodium heparin, centrifuge at 8000 rpm for 10 minutes at 4° C., and then collect the supernatant.
as §2

C[C@@]12CC[C@@H]3[C@H](OC(=O)[C@H]3CN3CCNCC3)[C@@H]3[C@]1(CC[C@@]3(C)O)C2 [Compound 7]
activation at 1 µM [1]: 0 to 20%

C[C@@]12CC[C@@H]3[C@H](OC(=O)[C@H]3CN3CCCC3)[C@@H]3[C@]1(CC[C@@]3(C)O)C2 [Compound 22]
degraded at 1 h ([2]; 1 h): 6.4%
degraded at 2 h ([2]; 2 h): 14.8%
degraded at 4 h ([2]; 4 h): 26.6%
degraded at 8 h ([2]; 8 h): 41.3%
degraded at 12 h ([2]; 12 h): 53.7%
metabolised at 1 h ([3]; 1 h): 7.4%
metabolised at 2 h ([3]; 2 h): 16.8%
metabolised at 4 h ([3]; 4 h): 27.6%
metabolised at 8 h ([3]; 8 h): 46.3%
metabolised at 12 h ([3]; 12 h): 57.7%

C[C@@]12CC[C@@H]3[C@H](OC(=O)[C@H]3CN3CCNCC3)[C@@H]3[C@]1(CC[C@@]3(C)O)C2 [Compound 26]
degraded at 1 h ([2]; 1 h): 6.8%
degraded at 2 h ([2]; 2 h): 16.1%
degraded at 4 h ([2]; 4 h): 27.3%
degraded at 8 h ([2]; 8 h): 43.5%
degraded at 12 h ([2]; 12 h): 55.6%
metabolised at 1 h ([3]; 1 h): 7.8%
metabolised at 2 h ([3]; 2 h): 17.1%
metabolised at 4 h ([3]; 4 h): 29.3%
metabolised at 8 h ([3]; 8 h): 48.5%
metabolised at 12 h ([3]; 12 h): 65.6%

CCN1CCN(C[C@@H]2C(=O)O[C@H]3[C@H]2CC[C@@]2(C)C[C@]24CC[C@@](C)(O)[C@H]34)CC1 [Compound 27]
degraded at 1 h ([2]; 1 h): 6.9%
degraded at 2 h ([2]; 2 h): 15.4%
degraded at 4 h ([2]; 4 h): 27.4%
degraded at 8 h ([2]; 8 h): 42.2%
degraded at 12 h ([2]; 12 h): 54.8%
metabolised at 1 h ([3]; 1 h): 7.9%
metabolised at 2 h ([3]; 2 h): 17.4%
metabolised at 4 h ([3]; 4 h): 28.4%
metabolised at 8 h ([3]; 8 h): 48.2%
metabolised at 12 h ([3]; 12 h): 59.1%

CCN(CC)C[C@@H]1C(=O)O[C@H]2[C@H]1CC[C@@]1(C)C[C@]13CC[C@@](C)(O)[C@H]23 [Compound 28]
degraded at 1 h ([2]; 1 h): 6.8%
degraded at 2 h ([2]; 2 h): 14.5%
degraded at 4 h ([2]; 4 h): 24.4%
degraded at 8 h ([2]; 8 h): 40.4%
degraded at 12 h ([2]; 12 h): 50%
metabolised at 1 h ([3]; 1 h): 6.8%
metabolised at 2 h ([3]; 2 h): 14.5%
metabolised at 4 h ([3]; 4 h): 24.4%
metabolised at 8 h ([3]; 8 h): 40.4%
metabolised at 12 h ([3]; 12 h): 49.1%

CN(C)C[C@@H]1C(=O)O[C@H]2[C@H]1CC[C@@]1(C)C[C@]13CC[C@@](C)(O)[C@H]23 [Compound 39]
Release rate (conversion to Compound 1) ([2]; 1 h, 60 min): 6.6%
degraded at 2 h ([2]; 2 h): 15%
degraded at 4 h ([2]; 4 h): 26.8%
degraded at 8 h ([2]; 8 h): 42.7%
degraded at 12 h ([2]; 12 h): 54.3%
metabolised at 1 h ([3]; 1 h): 6.6%
metabolised at 2 h ([3]; 2 h): 14%
metabolised at 4 h ([3]; 4 h): 26.2%
metabolised at 8 h ([3]; 8 h): 43.6%
metabolised at 12 h ([3]; 12 h): 52.8%

CN(C)C[C@@H]1C(=O)O[C@H]2[C@H]1CC[C@@]1(C)C[C@]13CC[C@@](C)(O)[C@H]23 [Compound 40]
Release rate (conversion to Compound 1) ([2]; 1 h, 60 min): 6.8%
Release rate (conversion to Compound 1) ([2]; 2 h, 120 min): 14.6%
Release rate (conversion to Compound 1) ([2]; 4 h, 240 min): 26.2%
Release rate (conversion to Compound 1) ([2]; 8 h, 480 min): 44.0%
Release rate (conversion to Compound 1) ([2]; 12 h, 720 min): 50.2%
Release rate (conversion to Compound 1) ([3]; 1 h, 60 min): 6.7%
Release rate (conversion to Compound 1) ([3]; 2 h, 120 min): 14.2%
Release rate (conversion to Compound 1) ([3]; 4 h, 240 min): 26.8%
Release rate (conversion to Compound 1) ([3]; 8 h, 480 min): 44.0%
Release rate (conversion to Compound 1) ([3]; 12 h, 720 min): 52.6%

CN(C)C[C@@H]1C(=O)O[C@H]2[C@H]1CC[C@@]1(C)C[C@]13CC[C@@](C)(O)[C@H]23 [Compound 41]
Release rate (conversion to Compound 1) ([2]; 1 h, 60 min): 7.0%
Release rate (conversion to Compound 1) ([2]; 2 h, 120 min): 16.2%
Release rate (conversion to Compound 1) ([2]; 4 h, 240 min): 27.3%
Release rate (conversion to Compound 1) ([2]; 8 h, 480 min): 43.4%
Release rate (conversion to Compound 1) ([2]; 12 h, 720 min): 53.2%
Release rate (conversion to Compound 1) ([3]; 1 h, 60 min): 7.8%
Release rate (conversion to Compound 1) ([3]; 2 h, 120 min): 17.2%
Release rate (conversion to Compound 1) ([3]; 4 h, 240 min): 28.0%
Release rate (conversion to Compound 1) ([3]; 8 h, 480 min): 46.1%
Release rate (conversion to Compound 1) ([3]; 12 h, 720 min): 54.8%

CN(C)C[C@@H]1C(=O)O[C@H]2[C@H]1CC[C@@]1(C)C[C@]13CC[C@@](C)(O)[C@H]23 [Compound 42]
Release rate (conversion to Compound 1) ([2]; 1 h, 60 min): 7.0%
Release rate (conversion to Compound 1) ([2]; 2 h, 120 min): 15.0%
Release rate (conversion to Compound 1) ([2]; 4 h, 240 min): 25.2%
Release rate (conversion to Compound 1) ([2]; 8 h, 480 min): 42.8%
Release rate (conversion to Compound 1) ([2]; 12 h, 720 min): 52.3%
Release rate (conversion to Compound 1) ([3]; 1 h, 60 min): 6.3%
Release rate (conversion to Compound 1) ([3]; 2 h, 120 min): 14.2%
Release rate (conversion to Compound 1) ([3]; 4 h, 240 min): 26.2%
Release rate (conversion to Compound 1) ([3]; 8 h, 480 min): 41.0%
Release rate (conversion to Compound 1) ([3]; 12 h, 720 min): 47.2%

CC1CCN(C[C@@H]2C(=O)O[C@H]3[C@H]2CC[C@@]2(C)C[C@]24CC[C@@](C)(O)[C@H]34)CC1 [Compound 43]
T-cell proliferation rate (%) ([1]; 1 μM, MDSCs treated 12 hours, co-culture of MDSCs and T cells, compared to the control group): + (T-cell proliferation rate within the 0-20% range compared to the control group)

CC(C)(C)OC(=O)N1CCN(C[C@@H]2C(=O)O[C@H]3[C@H]2CC[C@@]2(C)C[C@]24CC[C@@](C)(O)[C@H]34)CC1 [Compound 44]
activation at 1 µM [1]: 0 to 20%

CN(C)C[C@@H]1C(=O)O[C@H]2[C@H]1CC[C@@]1(C)C[C@]13C[C@@H](O)[C@@](C)(O)[C@H]23 [Compound 60]
activation at 1 µM [1]: 0 to 20%

CC1=C2[C@H]3OC(=O)[C@@H](CN(C)C)[C@@H]3CC[C@@]3(C)C[C@@]23CC1 [Compound 62]
activation at 1 µM [1]: 0 to 20%

CCC(=O)O[C@]1(C)CC[C@@]23C[C@]2(C)CC[C@@H]2[C@H](CC(=O)[C@H]2CN(C)C)[C@H]31 [Compound 63]
activation at 1 µM [1]: 0 to 20%

C=C1C(=O)O[C@H]2[C@H]1CCC(C)=C1CC[C@@](C)(OC(=O)NC)[C@@H]12 [Compound 64]
activation at 1 µM [1]: > 40%

C=C1C(=O)O[C@H]2[C@H]1CCC(C)=C1CC[C@@](C)(OC(=O)NCC)[C@@H]12 [Compound 65]
activation at 1 µM [1]: 0 to 20%

C=C1C(=O)O[C@H]2[C@H]1CCC(C)=C1CC[C@@](C)(OC(=O)NCCC)[C@@H]12 [Compound 66]
activation at 1 µM [1]: 0 to 20%

C=C1C(=O)O[C@H]2[C@H]1CCC(C)=C1CC[C@@](C)(OC(=O)NCCCC)[C@@H]12 [Compound 67]
activation at 1 µM [1]: 20 to 40%

C=C1C(=O)O[C@H]2[C@H]1CCC(C)=C1CC[C@@](C)(OC(=O)NC(C)C)[C@@H]12 [Compound 68]
activation at 1 µM [1]: 0 to 20%

C=C1C(=O)O[C@H]2[C@H]1CCC(C)=C1CC[C@@](C)(OC(=O)NC(CC)CC)[C@@H]12 [Compound 69]
activation at 1 µM [1]: 20 to 40%

C=C1C(=O)O[C@H]2[C@H]1CCC(C)=C1CC[C@@](C)(OC(=O)NC3CC3)[C@@H]12 [Compound 70]
activation at 1 µM [1]: 0 to 20%

C=C1C(=O)O[C@H]2[C@H]1CCC(C)=C1CC[C@@](C)(OC(=O)NCCO)[C@@H]12 [Compound 71]
activation at 1 µM [1]: > 40%

C=C1C(=O)O[C@H]2[C@H]1CCC(C)=C1CC[C@@](C)(OC(=O)NCCCO)[C@@H]12 [Compound 72]
activation at 1 µM [1]: 20 to 40%

C=C1C(=O)O[C@H]2[C@H]1CCC(C)=C1CC[C@@](C)(OC(=O)NCCCCCO)[C@@H]12 [Compound 73]
activation at 1 µM [1]: 20 to 40%

C=C1C(=O)O[C@H]2[C@H]1CCC(C)=C1CC[C@@](C)(OC(=O)NCCOC)[C@@H]12 [Compound 74]
activation at 1 µM [1]: > 40%

C=C1C(=O)O[C@H]2[C@H]1CCC(C)=C1CC[C@@](C)(OC(=O)NCCCOC)[C@@H]12 [Compound 75]
activation at 1 µM [1]: 20 to 40%

C=C1C(=O)O[C@H]2[C@H]1CCC(C)=C1CC[C@@](C)(OC(=O)NCCOCCO)[C@@H]12 [Compound 76]
activation at 1 µM [1]: 20 to 40%

C=C1C(=O)O[C@H]2[C@H]1CCC(C)=C1CC[C@@](C)(OC(=O)NCCN(C)C)[C@@H]12 [Compound 77]
activation at 1 µM [1]: 0 to 20%

C=C1C(=O)O[C@H]2[C@H]1CCC(C)=C1CC[C@@](C)(OC(=O)NCc3ccccc3)[C@@H]12 [Compound 79]
activation at 1 µM [1]: 20 to 40%
